molecular target: T1, human recombinant ROCK II (Homo sapiens, UniProt O75116); test: Determination of Rho kinase inhibition (Caliper peptide phosphorylation assay); assay type: biochemical; conditions: negative decadal logarithm of the IC50; ROCK II residues 11-552, fluorescein peptide substrate, ATP, 60 min at 32° C.; salt or free base as obtained in the examples
T1 construct: recombinant human ROCK-II residues 11-552; His6 (N); purchased Upstate Ltd., Dundee, UK
Protocol: Determination of Rho Kinase Inhibition
To measure Rho-kinase inhibition, IC50 values were determined according to the following protocol:
Active human recombinant ROCK II (N-terminal His6-tagged recombinant human ROCK-II residues 11-552) was purchased from Upstate Ltd., Dundee, UK. The peptide substrate, Fluorescein-AKRRRLSSLRA-COOH, was obtained from JPT Peptide Technologies, Berlin, Germany. Adenosine-5′-triphosphate (ATP), bovine serum albumine (BSA), dimethylsulphoxide (DMSO), 4-(2-Hydroxyethyl)piperazine-1-ethanesulfonic acid (Hepes), Brij-35 and dithiothreitol (DTT) were purchased from Sigma-Aldrich, Munich, Germany. Tris(hydroxymethyl)-aminomethane (Tris), magnesium chloride, NaOH, 1M HCl and EDTA were obtained from Merck Biosciences, Darmstadt, Germany. “Complete” protease inhibitor was from Roche Diagnostics, Mannheim, Germany.
Test compounds were diluted to the appropriate concentrations in buffer 1 (25 mM Tris-HCl, pH 7.4, 5 mM MgCl2, 2 mM DTT, 0.02% (w/v) BSA and 3% DMSO). The ROCK II enzyme was diluted to a concentration of 100 ng/ml in buffer 2 (25 mM Tris-HCl, pH 7.4, 5 mM MgCl2, 2 mM DTT and 0.02% (w/v) BSA). The peptide substrate and ATP were diluted to concentrations of 3 μM and 120 μM, respectively, in the buffer 2. Two μl of the compound solution were mixed with 2 μl of the diluted enzyme in a 384-well small volume microtiter plate (Greiner, Bio-One, Frickenhausen, Germany), and the kinase reaction was initiated by addition of 2 μl of the solution containing peptide substrate and ATP. After 60 min incubation at 32° C., the reaction was stopped by addition of 20 μl of a solution containing 100 mM Hepes-NaOH, pH 7.4, 0.015% (v/v) Brij-35, 45 mM EDTA and 0.227% chip coating reagent 1 (Caliper Lifescience Inc, Hopkinton, Mass.). Phosphorylation of the substrate peptide was then detected on a Caliper 3000 instrument essentially as described by Pommereau et al (J. Biomol. Screening 9(5), 409-416, 2004). Separation conditions were as follows: Pressure −1.3 psi, upstream voltage −1562 V, downstream voltage −500 V, sample sip time 200 ms. Positive controls (buffer 1 instead of compound) and negative controls (buffer 1 instead of compound and buffer 2 instead of ROCK II) were run in parallel on each plate.
The following products/compounds were tested in said assay by using the respective form (salt or free base) obtained as in the examples described above and the following activities were measured.

T1 sequence (O75116 11-552): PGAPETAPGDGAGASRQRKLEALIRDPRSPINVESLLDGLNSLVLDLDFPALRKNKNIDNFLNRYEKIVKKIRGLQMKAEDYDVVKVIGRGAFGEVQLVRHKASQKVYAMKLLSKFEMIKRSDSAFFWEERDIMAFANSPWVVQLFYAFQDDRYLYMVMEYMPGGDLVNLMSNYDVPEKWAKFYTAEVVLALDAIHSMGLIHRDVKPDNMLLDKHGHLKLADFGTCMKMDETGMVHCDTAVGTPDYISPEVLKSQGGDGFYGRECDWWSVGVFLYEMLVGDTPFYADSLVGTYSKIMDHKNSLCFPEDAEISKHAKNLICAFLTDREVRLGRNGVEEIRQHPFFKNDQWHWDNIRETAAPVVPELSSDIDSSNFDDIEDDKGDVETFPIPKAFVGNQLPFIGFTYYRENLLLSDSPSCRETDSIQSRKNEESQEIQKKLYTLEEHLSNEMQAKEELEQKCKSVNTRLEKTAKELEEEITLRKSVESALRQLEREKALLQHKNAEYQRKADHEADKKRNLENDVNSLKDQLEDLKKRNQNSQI

| SMILES | IC50 [nM] |
| --- | --- |
| NCC(=O)N1CCC(Oc2ccc3c(=O)[nH]ccc3c2)CC1 [Example 24, 6-[1-(2-Amino-acetyl)-piperidin-4-yloxy]-2H-isoquinolin-1-one] | ≤ 1000 |
| O=c1[nH]ccc2cc(O[C@@H]3CCN(Cc4ccccc4)C3)c(Cl)cc12 [Example 66, 6-((R)-1-Benzyl-pyrrolidin-3-yloxy)-7-chloro-2H-isoquinolin-1-one] | ≤ 1000 |
| O=c1[nH]ccc2cc(O[C@H]3CCN(Cc4ccccc4)C3)c(Cl)cc12 [Example 67, 6-((S)-1-Benzyl-pyrrolidin-3-yloxy)-7-chloro-2H-isoquinolin-1-one] | 1000 to 10000 |
| Cc1cc2c(=O)[nH]ccc2cc1OC[C@@H]1CCNC1 [Example 69, 7-Methyl-6-((R)-1-pyrrolidin-3-ylmethoxy)-2H-isoquinolin-1-one] | ≤ 1000 |
| Cc1cc2c(=O)[nH]ccc2cc1O[C@H]1CCNC1 [Example 70, 7-Methyl-6-((S)-pyrrolidin-3-yloxy)-2H-isoquinolin-1-one] | ≤ 1000 |
| Cc1c[nH]c(=O)c2ccc(OC3CCN(C[C@@H](N)CO)CC3)c(F)c12 [Example 75, 6-[1-((R)-2-Amino-3-hydroxy-propyl)-piperidin-4-yloxy]-5-fluoro-4-methyl-2H-isoquinolin-1-one] | 1000 to 10000 |

Further lines, results first:

| IC50 [nM] | SMILES |
| --- | --- |
| ≤ 1000 | C[C@@H](N)C(=O)N1CCC(Oc2cc3cc[nH]c(=O)c3cc2Cl)CC1 [Example 11, 6-[1-(2-Amino-propionyl)-piperidin-4-yloxy]-7-chloro-2H-isoquinolin-1-one] |
| ≤ 1000 | O=C([C@@H]1CCCN1)N1CCC(Oc2cc3cc[nH]c(=O)c3cc2Cl)CC1 [Example 15, 7-Chloro-6-[1-((S)-pyrrolidine-2-carbonyl)-piperidin-4-yloxy]-2H-isoquinolin-1-one] |
| ≤ 1000 | CN(C)CC(=O)N1CCC(Oc2cc3cc[nH]c(=O)c3cc2Cl)CC1 [Example 16, 7-Chloro-6-[1-(2-dimethylamino-acetyl)-piperidin-4-yloxy]-2H-isoquinolin-1-one] |
| 1000 to 10000 | NC1(C(=O)N2CCC(Oc3cc4cc[nH]c(=O)c4cc3Cl)CC2)CC1 [Example 19, 6-[1-(1-Amino-cyclopropanecarbonyl)-piperidin-4-yloxy]-7-chloro-2H-isoquinolin-1-one] |
| ≤ 1000 | N[C@@H](Cc1ccc(Cl)cc1)C(=O)N1CCC(Oc2cc3cc[nH]c(=O)c3cc2Cl)CC1 [Example 22, 6-{1-[(S)-2-Amino-3-(4-chloro-phenyl)-propionyl]-piperidin-4-yloxy}-7-chloro-2H-isoquinolin-1-one] |
| ≤ 1000 | CCCNC(=O)CN1CCC(Oc2cc3cc[nH]c(=O)c3cc2Cl)CC1 [Example 46, 2-[4-(7-Chloro-1-oxo-1,2-dihydro-isoquinolin-6-yloxy)-piperidin-1-yl]-N-propyl-acetamide] |
| ≤ 1000 | O=c1[nH]ccc2cc(OC3CCCNCC3)c(Cl)cc12 (stereo not drawn) [Example 55, 6-(Azepan-4-yloxy)-7-chloro-2H-isoquinolin-1-one] |
| ≤ 1000 | O=c1[nH]ccc2cc(OC3CNC3)c(Cl)cc12 [Example 58, 6-(Azetidin-3-yloxy)-7-chloro-2H-isoquinolin-1-one] |
| ≤ 1000 | Cc1cc2c(=O)[nH]ccc2cc1OC1CCCNCC1 (stereo not drawn) [Example 68, 6-(Azepan-4-yloxy)-7-methyl-2H-isoquinolin-1-one] |

Reference: US8278294B2, “Substituted isoquinoline and isoquinolinone derivatives as inhibitors of Rho-kinase” (Sanofi, priority 2006, dated 2012)
